Key:
HSV-1 protease = target: T1, HSV-1 protease (Human herpesvirus 1, UniProt P10210); experiment: Enzymatic assay for HSV-1 protease (assembly) inhibitor, fluorescence polarization; type: biochemical; conditions: read-out: HSV-1 Enzyme inhibition IC50
T1 construct: 6xHis (N); made in house; host or cells: baculovirus expression system
Summary of the method: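 His6-tagged HSV-1 UL26 protease, baculovirus-expressed, preincubated 30 min at RT with compound in 1 M citrate/phosphate buffer pH 7.4 with 20% glycerol and 2 mM TCEP. A biotin-HTYLQA*SERFRIK-DTAF substrate was then cleaved for 60 min at RT, stopped with avidin, and read by fluorescence polarization versus no-inhibitor control.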

HSV2 = experiment: Antiviral activity 2, plaque formation in HEL cells; type: cell-based, HSV-2; conditions: Human alphaherpesvirus 2, 72 h, 3 days
Procedure: (§1) An Assay Method for Antiviral Activity 2
(§2) The HEL cells were sowed on a 48-well plate and then cultured overnight. The culture supernatant was removed, and 100 μl of 2% FBS-DMEM containing 40 Plaque-forming units of HSV-1, HSV-2, VZV, or CMV was added. A viral solution Was removed 1 hour later, and 500 μl of 2% FBS-DMEM containing 0.5% methylcellulose comprising 50, 25, 12.5, 6.3, 3.2, or 1.6 μM of the test compound was added. In this case, a substance to which 2% FBS-DMEM containing 0.5% methylcellulose not comprising any test compound had been added was designated as a control. In the case of HSV-1, HSV-2, or VZV, incubation was carried out in the presence of 5% CO2 at 37° C. for 3 days. In the case of CMV, incubation was carried out under the same conditions for 14 days. After they were immobilized on formalin and stained with bromophenol blue, the amount of plaque formed was counted, and the ratio of plaque formation of the drug-containing reaction system relative to the control was determined. The concentration of the drug with which the ratio of plaque formation reaches 50% was calculated and determined to be IC50. Concerning HSV-1, an aciclovir-resistant thymidine kinase variant and a DNA polymerase variant were examined in addition to a general aciclovir-sensitive strain.

HSV-1 = experiment: Antiviral activity, HSV-1 in Vero cells, plaque method; type: cell-based; conditions: Human alphaherpesvirus 1, 20 hours, 90% inhibition of plaque formation
Summary of the method: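 HSV-1 (50,000 pfu in 2% FBS-DMEM) was added to Vero cells and removed, then the compound was applied in 2% FBS-DMEM for 20 h at 37° C, 5% CO2. After a freeze-thaw, virus yield in the medium was titred by plaque assay. EC90 is the concentration giving 90% plaque reduction versus the compound-free control.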

Human plasma stability = type: in vitro ADME
Procedure: An Assay Method for Human Plasma Stability Human plasma was thawed, 200 μl each thereof was placed in each cell of a 96-well plate immediately thereafter, and 4 μl of solution of each test compound in 1 mM DMF was added thereto. A microplate reader for fluorescence absorption was used to assay changes in fluorescence, and half life was determined based on the changes.

VZV = experiment: Antiviral activity 2, plaque formation in HEL cells; type: cell-based; conditions: Human alphaherpesvirus 3, 72 h, 3 days
Procedure: as §1, §2

HCMV = experiment: as above; type: cell-based, CMV; conditions: Human betaherpesvirus 5, 336 h, 14 days
Procedure: as §1, §2

T1 sequence (P10210 1-247): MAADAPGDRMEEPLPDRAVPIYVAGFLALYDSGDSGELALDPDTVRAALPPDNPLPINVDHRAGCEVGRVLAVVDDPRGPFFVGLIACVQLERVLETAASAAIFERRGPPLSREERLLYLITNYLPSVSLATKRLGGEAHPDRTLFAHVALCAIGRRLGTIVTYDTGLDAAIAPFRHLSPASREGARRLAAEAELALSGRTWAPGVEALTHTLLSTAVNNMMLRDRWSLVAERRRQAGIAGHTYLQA

In the case of `Cc1c(NC(=O)OC(C)(C)C)ccc2nc(NC(C)(C)C(=O)N(C)CCc3ccccn3)oc(=O)c12` [Compound No.18, (5-methyl-2-{1-methyl-1-[methyl-(2-pyridin-2-yl-ethyl)-carbamoyl]-ethylamino}-4-oxo-4H-benzo[d][1,3]oxazin-6-yl)-carbamic Acid Tert-Butyl Ester], the IC50 (HSV-1 protease) is reported as 0.4 µM, the IC50 (HSV2) is reported as 12.5 µM and the EC90 (HSV-1) is reported as 8.4 µM. For the same compound, the half-life at 19.6 μM (Human plasma stability) was 2.83 h, the IC50 (VZV) was 25 µM and the IC50 (HCMV) was 11.1 µM.

From patent US20040116420A1 (priority 2001, published 2004)
